SMILES strings stand for the structures.

This test has as its system HEK293T cells carrying the ATF4 luciferase reporter. Briefly: ATF4-Luc assay, in vitro model of Vanishing Cell White Matter Disease (VWMD). In kind it is cell-based. As to conditions: Homo sapiens, HEK-293T, 1 μg/mL tunicamycin, 7 hours, One Glo luminescence. The method in brief:
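Compound at 200 nM and tunicamycin at 1 μg/mL were given together for 7 h to HEK293T cells stably transduced with an ATF4 5′-UTR-driven firefly luciferase reporter. Read-out by luminescence, reported as EC50.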
A word on the EC50: it is the concentration at which the effect is half-maximal. On to `O=C(COc1ccc(Cl)c(F)c1)NC12CCC(NC(=O)c3ccc(C(F)F)s3)(CC1)CC2O` (stereo not drawn) [Compound 623, N-{4-[2-(4-chloro-3-fluorophenoxy)acetamido]-3-hydroxybicyclo[2.2.2]octan-1-yl}-5-(difluoromethyl)thiophene-2-carboxamide], for which the EC50 is 50 to 250 nM.
For `Cc1cc2c(C(=O)NC34CC(NC(=O)COc5ccc(Cl)c(F)c5)(C3)C4)nccn2n1` [Compound 561, N-{3-[2-(4-chloro-3-fluorophenoxy)acetamido]bicyclo[1.1.1]pentan-1-yl}-2-methylpyrazolo[1,5-a]pyrazine-4-carboxamide] the value was over 2000 nM; for `CC(=O)c1ccnc(C(=O)NC23CC(NC(=O)COc4ccc(Cl)c(F)c4)(C2)C3)c1` [Compound 501, 4-acetyl-N-{3-[2-(4-chloro-3-fluorophenoxy)acetamido]bicyclo[1.1.1]pentan-1-yl}pyridine-2-carboxamide], 1000 to 2000 nM.
Consider `O=C(COc1ccc(Cl)c(F)c1)NC12CC(NC(=O)c3cnc(-c4ccc(C(F)(F)F)nc4)o3)(C1)C2` [Compound 107, N-{3-[2-(4-chloro-3-fluorophenoxy)acetamido]bicyclo[1.1.1]pentan-1-yl}-2-[6-(trifluoromethyl)pyridin-3-yl]-1,3-oxazole-5-carboxamide], for which the EC50 was under 50 nM.
For `CCc1nc(C(=O)NC23CC(NC(=O)COc4ccc5c(c4)OC(F)(F)O5)(C2)C3)cs1` [Compound 699, N-(3-{2-[(2,2-difluoro-2H-1,3-benzodioxol-5-yl)oxy]acetamido}bicyclo[1.1.1]pentan-1-yl)-2-ethyl-1,3-thiazole-4-carboxamide] the value was 250 to 1000 nM; for `O=C(COc1ccc(Cl)c(F)c1)NC12CC(NC(=O)c3ccc(N4CCCC4)cn3)(C1)C2` [Compound 123, N-{3-[2-(4-chloro-3-fluorophenoxy)acetamido]bicyclo[1.1.1]pentan-1-yl}-5-(pyrrolidin-1-yl)pyridine-2-carboxamide], 250 to 1000 nM.
For `O=C(COc1ccc(Cl)c(F)c1)NC12CCC(NC(=O)c3ccn[nH]3)(CC1)C(O)C2` (stereo not drawn) [Compound 224, N-{4-[2-(4-chloro-3-fluorophenoxy)acetamido]-2-hydroxybicyclo[2.2.2]octan-1-yl}-1H-pyrazole-5-carboxamide] the value was 250 to 1000 nM.
Next, `Cc1cc(C(=O)NC23CCC(NC(=O)COc4ccc(Cl)c(F)c4)(CC2)CC3O)on1` (stereo not drawn) [Compound 330, N-{4-[2-(4-chloro-3-fluorophenoxy)acetamido]-2-hydroxybicyclo[2.2.2]octan-1-yl}-3-methyl-1,2-oxazole-5-carboxamide]: 50 to 250 nM; `O=C(COc1ccc(Cl)c(F)c1)NC12CCC(NC(=O)c3cnc(C(F)F)cn3)(CC1)CC2O` (stereo not drawn) [Compound 229, N-{4-[2-(4-chloro-3-fluorophenoxy)acetamido]-3-hydroxybicyclo[2.2.2]octan-1-yl}-5-(difluoromethyl)pyrazine-2-carboxamide]: 50 to 250 nM; `Cc1cc(C(=O)NC23CC(NC(=O)COc4ccc(Cl)c(F)c4)(C2)C3)n(C)n1` [Compound 241, N-{3-[2-(4-chloro-3-fluorophenoxy)acetamido]bicyclo[1.1.1]pentan-1-yl}-1,3-dimethyl-1H-pyrazole-5-carboxamide]: under 50 nM.
As for `O=C(COc1ccc(Cl)c(F)c1)NC12CC(NC(=O)c3cn4ccsc4n3)(C1)C2` [Compound 799, N-{3-[2-(4-chloro-3-fluorophenoxy)acetamido]bicyclo[1.1.1]pentan-1-yl}imidazo[2,1-b][1,3]thiazole-6-carboxamide], the EC50 is over 2000 nM.
As to `CSc1ccccc1C(=O)NC12CC(NC(=O)COc3ccc(Cl)c(F)c3)(C1)C2` [Compound 866, N-{3-[2-(4-chloro-3-fluorophenoxy)acetamido]bicyclo[1.1.1]pentan-1-yl}-2-(methylsulfanyl)benzamide], the concentration for a half-maximal effect (EC50) is over 2000 nM.

The values are drawn from patent publication US10913727B2, “Modulators of the integrated stress pathway” (Calico Life Sciences LLC, priority 2016, dated 2021).
